Results reported in patent publication US6562978B1, “Cyclic amine compounds as CCR5 antagonists” (Takeda Chemical Industries, Ltd., priority 1999, dated 2003).
Structures can show the parent of a compound that is named as a salt.

How the values were obtained:
HIV-1 Ba-L = test: Inhibitory effect on HIV-1 infection to MAGI-CCR5 cell (blue cell count, β-galactosidase); assay type: cell-based; details: Human immunodeficiency virus 1, BAL, 48 h; final concentration of Test Compound 0.032 μM; MAGI-CCR5 cells; 300PFU HIV-1 Ba-L; 37° C. for 2 days
Procedure: By using said transformant MAGI-CCR5, degree of HIV-1 infection was calculated from β-galactosidase activity (blue color due to decomposition of 5-bromo-4-chloro-3-indolyl-β-D-galactopyranoside). Specifically, MAGI-CCR5 cells were suspended in DMEM medium containing 10% serum to prepare 5×10^4 cells/ml suspension. To each well of 96 well plate was inoculated 200 μM of the suspension, and the cells were cultivated at 37° C. overnight. The medium was removed by means of suction, and to the residue was added 100 μM of the above medium containing 0.064 μM of Test Compound and 100 μM of the above medium containing 300PFU of HIV-1 Ba-L cells. The final concentration of Test Compound was 0.032 μM. The cells were cultivated at 37° C. for 2 days. The medium was removed by means of suction. To the residue was added 200 μM of cell fixative (PBS containing 1% formaldehyde and 0.2% glutaraldehyde), and the mixture was allowed to stand at room temperature for 5 minutes and washed twice with PBS. To the mixture was added 100 μl of staining solution (PBS containing 4 μM potassium ferrocyanide, 4 μM potassium ferricyanade, 2 μM MgCl2 and 0.4 mg/ml×-gal), and the mixture was allowed to stand at 37° C. for 50 minutes and washed twice with PBS. The number of blue cells was counted by microscope and defined as the number of cells infected with HIV-1.

human CCR5 = target: T1, human CCR5 (Homo sapiens, UniProt P51681); test: CCR5 binding assay: inhibition of [125I]-RANTES binding to CHO/CCR5 cells; details: 1.0 μM test compound, 100 pM [125I]-RANTES, room temperature 40 minutes; for inhibition at 1 µM: read-out: Inhibition Rate (%) at 1.0 μM
T1 construct: expressed in transfected cells; whole cells in the well
Procedure: (1) Cloning of Human CCR5 Chemokine Receptor
Cloning of CCR5 gene was carried out by PCR (polymerase chain reaction) from human spleen cDNA. With using 0.5 ng of spleen cDNA (Toyobo, QUICK-Clone cDNA) as template, PCR was performed in DNA Thermal Cycler 480 (Perkin-Elmer) (reaction conditions: 30 cycles of 95° C. for 1 minute, 60° C. for 1 minute, and 75° C. for 5 minutes) by adding primer set, 5′-[…]-3′ (25 pmol) and 5′-[…]-3′ (25 pmol), which were designed referring to nucleotide sequence of CCR5 gene reported by Samson et al. (Biochemistry, 35(11), 3362-3367 (1996)) and by using TaKaRa EX Taq (Takara Shuzo). The resultant PCR product was subjected to agarose gel electrophoresis to collect about 1.0 kb DNA fragment, which was subjected to Original TA Cloning Kit (Funakoshi) to carry out cloning of CCR5 gene.
(2) Preparation of Plasmid for Expression of Human […]
The plasmid obtained in the above (1) was digested with restriction enzymes XbaI (Takara Shuzo) and BamHI (Takara Shuzo) and subjected to agarose gel electrophoresis to collect about 1.0 kb DNA fragment. The DNA fragment was mixed with plasmid pcDNA3.1 (Funakoshi) for expression in animal cells, said plasmid being digested with XbaI and BamHI, and they were ligated with DNA Ligation Kit Ver.2 (Takara Shuzo). The resulting plasmid was subjected to transformation of competent cell of E. coli JM109 (Takara Shuzo) to obtain plasmid pCKR5.
(3) Introduction of Plasmid for Expression of Human CCR5 into CHO-K1 Cell and Expression of said Plasmid in CHO-KY Cell
CHO-K1 cells were grown in 750 ml of tissue culture flask (Becton Dickinson) using Ham's F12 medium (Nihon Pharmaceutical) containing 10% fetal calf serum (Life Tech Oriental) and took off with 0.5 g/L trypsin-0.2 g/L EDTA (Life Tech Oriental). The cells were washed with PBS (Life Tech Oriental), centrifuged (1000 rpm, 5 minutes), and suspended in PBS. With using Gene Pulser (Bio-Rad Laboratories), DNA was introduced into the cells under the conditions shown below. That is, to the cuvette of 0.4 cm gap were added 8×10^6 cells and 10 μg of plasmid pCKR5 for expression of human CCR5, and electroporation was carried out under 0.25 kV of voltage and […] of capacitance. The cells were transferred into Ham's F12 medium (Nihon Pharmaceutical) containing 10% fetal calf serum, and cultivated for 24 hours. The cells were again took off and centrifuged, and suspended in Ham's F12 medium (Nihon Pharmaceutical) containing 10% fetal calf serum and 500 μg/ml of geneticin (Life Tech Oriental). The suspension was diluted to give 10^4 cells/ml of the suspension, which was inoculated on 96 well plate (Becton Dickinson) to give geneticin resistant cells. The resulting geneticin resistant cells were cultivated in 96 well plate (Becton Dickinson), and cells expressing CCR5 were selected from the geneticin resistant cells. That is, in assay buffer (Ham's F12 medium containing 0.5% BSA and 20 mM HEPES (Wako Pure Chemical, pH7.2) to which was added 200 pM of [^125I]-RANTES (Amersham) as ligand, binding reaction was carried out at room temperature for 40 minutes, and the buffer was washed with cooled PBS. To the buffer was added 50 μl/well of 1M NaOH, and the mixture was stirred. Radioactivity was determined with γ-counter to select CHO/CCR5 cells which specifically bind to the ligand.
(4) Evaluation of Test Compounds Based on CCR5 Antagonistic Activity
The CHO/CCR5 were inoculated on 96 well microplate (5×10^4 cells/well) and cultivated for 24 hours. The medium was removed by means of suction, and to each well was added assay buffer containing Test Compound (191) and then 100 pM of [^125I]-RANTES (Amersham) as ligand. Binding assay was carried out at room temperature for 40 minutes, and assay buffer was removed by means of suction. Each well was washed twice with cooled PBS, and 200 μl of Microscint-20 (Packard Instrument, Inc.) was added to each well.

T1 sequence (P51681 whole entry): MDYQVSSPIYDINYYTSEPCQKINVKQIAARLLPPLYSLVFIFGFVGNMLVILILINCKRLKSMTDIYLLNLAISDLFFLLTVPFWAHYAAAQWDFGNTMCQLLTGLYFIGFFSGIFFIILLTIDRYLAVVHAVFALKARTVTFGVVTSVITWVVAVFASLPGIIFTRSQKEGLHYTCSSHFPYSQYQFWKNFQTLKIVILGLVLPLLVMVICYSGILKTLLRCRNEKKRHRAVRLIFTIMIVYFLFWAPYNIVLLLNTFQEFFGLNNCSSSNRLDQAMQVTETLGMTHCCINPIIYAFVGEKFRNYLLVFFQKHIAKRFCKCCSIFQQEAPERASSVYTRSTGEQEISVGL

SMILES	inhibition at 1 µM (human CCR5)	further results
CC(=O)N1CCC(C(=O)N(CCCN2CCC(Sc3nc4ccccc4s3)CC2)c2cccc(Cl)c2)CC1 [Example 469, 1-Acetyl-N-(3-chlorophenyl)-N-[3-[4-(2-benzthiazolylthio)-1-piperidinyl]propyl]-4-piperidinecarboxamide Hydrochloride]		inhibition at 0.032 µM (HIV-1 Ba-L): 96%
CC(C)S(=O)(=O)N1CCC(C(=O)N(CCCN2CCC(Cc3ccc(F)cc3)CC2)c2ccc(Cl)c(Cl)c2)CC1 [Example 92, N-(3,4-Dichlorophenyl)-N-{3-[4-(4-fluorobenzyl)-1-piperidinyl]propyl}-1-(isopropylsulfonyl)-4-piperidinecarboxamide Trifluoroacetate]	92%	
CC(=O)N1CCC(C(=O)N(CCCN2CCC(Cc3ccc(NS(C)(=O)=O)cc3)CC2)c2ccc(Cl)c(Cl)c2)CC1 [Example 304, 1-Acetyl-N-(3,4-dichlorophenyl)-N-[3-(4-{4-[(methylsulfonyl)amino]benzyl}-1-piperidinyl)propyl]-4-piperidinecarboxamide]	99%	
CC(C)S(=O)(=O)c1ccc(CC2CCN(CCCN(C(=O)C3CCN(S(C)(=O)=O)CC3)c3ccc(Cl)c(Cl)c3)CC2)cc1 [Example 384, N-(3,4-Dichlorophenyl)-N-(3-{4-[4-(isopropylsulfonyl)benzyl]-1-piperidinyl}propyl)-1-(methylsulfonyl)-4-piperidinecarboxamide]	100%	
CS(=O)(=O)N1CCC(C(=O)N(CCCN2CCC(Cc3ccc(C(N)=O)cc3)CC2)c2ccc(Cl)c(Cl)c2)CC1 [Example 362, N-(3-{4-[4-(Aminocarbonyl)benzyl]-1-piperidinyl}propyl)-N-(3,4-dichlorophenyl)-1-(methylsulfonyl)-4-piperidinecarboxamide]	95%	
CS(=O)(=O)c1ccc(OC2CCN(CCCN(C(=O)C3CCN(S(C)(=O)=O)CC3)c3ccc(Cl)c(Cl)c3)CC2)cc1 [Example 374, N-(3,4-Dichlorophenyl)-1-(methylsulfonyl)-N-(3-{4-[4-(methylsulfonyl)phenoxy]-1-piperidinyl}propyl)-4-piperidinecarboxamide]	92%	
COc1ccc(CC2CCN(CCCN(C(=O)C3CCN(S(C)(=O)=O)CC3)c3ccc(Cl)c(Cl)c3)CC2)cc1 [Example 250, N-(3,4-Dichlorophenyl)-N-{3-[4-(4-methoxybenzyl)-1-piperidinyl]propyl}-1-(methylsulfonyl)-4-piperidinecarboxamide]	96%	
CC(=O)N1CCC(C(=O)N(CCCN2CCC(On3nnc4ccccc43)CC2)c2cccc(Cl)c2)CC1 [Example 88, 1-Acetyl-N-(3-chlorophenyl)-N-[3-[4-(1H-benzotriazol-1-yloxy)-1-piperidinyl]propyl]-4-piperidinecarboxamide Trifluoroacetate]	99%	
CN(C)C(=O)N1CCC(C(=O)N(CCCN2CCC(Cc3ccccc3)CC2)c2ccc(Cl)c(Cl)c2)CC1 [Example 27, N-[3-(4-Benzyl-1-piperidinyl)propyl]-N-(3,4-dichlorophenyl)-1-(N,N-dimethylcarbamoyl)-4-piperidinecarboxamide]	99%	
COc1ccc(CC2CCN(CCCN(C(=O)C3CCN(C(C)=O)CC3)c3ccc(Cl)c(Cl)c3)CC2)cc1 [Example 249, 1-Acetyl-N-(3,4-dichlorophenyl)-N-{3-[4-(4-methoxybenzyl)-1-piperidinyl]propyl}-4-piperidinecarboxamide]	94%	
CC(=O)N1CCC(C(=O)N(CCCN2CCC(Cc3ccc(-n4cnnn4)cc3)CC2)c2ccc(Cl)c(Cl)c2)CC1 [Example 300, 1-Acetyl-N-(3,4-dichlorophenyl)-N-(3-{4-[4-(1H-tetrazol-1-yl)benzyl]-1-piperidinyl}propyl)-4-piperidinecarboxamide]	100%	
CC(=O)N1CCC(C(=O)N(CCCN2CCN(Cc3ccc4c(c3)OCO4)CC2)c2cccc(Cl)c2)CC1 [Example 57, 1-Acetyl-N-(3-chlorophenyl)-N-[3-(4-piperonyl-1-piperazinyl)propyl]-4-piperidinecarboxamide Trifluoroacetate]	96%	
CS(=O)(=O)c1ccc(S(=O)(=O)C2CCN(CCCN(C(=O)C3CCN(S(C)(=O)=O)CC3)c3ccc(Cl)c(Cl)c3)CC2)cc1 [Example 334, N-(3,4-Dichlorophenyl)-1-(methylsulfonyl)-N-[3-(4-{[4-(methylsulfonyl)phenyl]sulfonyl}-1-piperidinyl)propyl]-4-piperidinecarboxamide]	100%	
CS(=O)(=O)c1ccc(CC2CCN(CCCN(C(=O)C3CCN(S(C)(=O)=O)CC3)c3ccc(Cl)c(Cl)c3)CC2)cc1 [Example 420, N-(3,4-Dichlorophenyl)-1-(methylsulfonyl)-N-(3-{4-[4-(methylsulfonyl)benzyl]-1-piperidinyl}propyl)-4-piperidinecarboxamide Hydrochloride]	98%	
CC(=O)N1CCC(C(=O)N(CCCN2CCC(n3nnc4ccccc43)CC2)c2cccc(Cl)c2)CC1 [Example 289, 1-Acetyl-N-{3-[4-(1H-1,2,3-benzotriazol-1-yl)-1-piperidinyl]propyl}-N-(3-chlorophenyl)-4-piperidinecarboxamide]	83%	
CC(=O)N1CCC(C(=O)N(CCCN2CCC(Sc3cnccn3)CC2)c2cccc(Cl)c2)CC1 [Example 79, 1-Acetyl-N-(3-chlorophenyl)-N-[3-[4-(2-pyrazinylthio)-1-piperidinyl]propyl]-4-piperidinecarboxamide Trifluoroacetate]	90%	
CC(=O)N1CCC(C(=O)N(CCCN2CCN(Cc3c(C)noc3C)CC2)c2cccc(Cl)c2)CC1.O=C(O)C(F)(F)F.O=C(O)C(F)(F)F [Example 272, 1-Acetyl-N-(3-chlorophenyl)-N-(3-{4-[(3,5-dimethylisoxazol-4-yl)methyl]-1-piperazinyl}propyl)-4-piperidinecarboxamide 2 Trifluoroacetate]		Inhibition Rate (%) at 1.0 μM (human CCR5): 96%
CC(=O)N1CCC(C(=O)N(CCCN2CCC(Cc3ccc(N4CCOCC4)cc3)CC2)c2ccc(Cl)c(Cl)c2)CC1 [Example 318, 1-Acetyl-N-(3,4-dichlorophenyl)-N-{3-[4-(4-morpholinobenzyl)-1-piperidinyl]propyl}-4-piperidinecarboxamide]	100%	
CC(=O)N1CCC(C(=O)N(CCCN2CCC(Sc3nc4ccccc4s3)CC2)c2ccc(Cl)c(Cl)c2)CC1 [Example 224]		Inhibition Rate (%) at 1.0 μM (human CCR5): 97%
NC(=O)C(=O)N1CCC(C(=O)N(CCCN2CCC(Cc3ccc(F)cc3)CC2)c2ccc(Cl)c(Cl)c2)CC1 [Example 150, N-(3,4-Dichlorophenyl)-N-{3-[4-(4-fluorobenzyl)-1-piperidinyl]propyl}-1-oxamoyl-4-piperidinecarboxamide Trifluoroacetate]	98%	
CC(=O)N1CCC(C(=O)N(CCCN2CCC(Cc3ccc(F)cc3)CC2)c2cccc(Cl)c2)CC1 [Example 18, 1-Acetyl-N-(3-chlorophenyl)-N-{3-[4-(4-fluorobenzyl)-1-piperidinyl]propyl}-4-piperidinecarboxamide]	87%	
